Source: PubChem BioAssay (NCI)
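Compound exposure: 48 hours, 5 concentrations, 96-well plates. GI50 is the concentration that inhibits growth by half. TGI is the concentration that stops growth completely.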

What was measured:
Assay in all cases: growth of human tumour cells (NCI), 48 h
DLD-1 colon = test system: DLD-1 colon
M14 melanoma = test system: M14 melanoma
M19-MEL melanoma = test system: M19-MEL melanoma
NCI-H460 lung = test system: NCI-H460 lung
RXF 393 renal = test system: RXF 393 renal
SF-539 CNS = test system: SF-539 CNS
SK-MEL-28 melanoma = test system: SK-MEL-28 melanoma
UO-31 renal = test system: UO-31 renal
MDA-MB-231 breast = test system: MDA-MB-231 breast

SMILES	TGI (DLD-1 colon) [µM]	TGI (M14 melanoma) [µM]	TGI (M19-MEL melanoma) [µM]	TGI (NCI-H460 lung) [µM]	TGI (RXF 393 renal) [µM]	TGI (SF-539 CNS) [µM]	TGI (SK-MEL-28 melanoma) [µM]	TGI (UO-31 renal) [µM]	TGI (MDA-MB-231 breast) [µM]	GI50 (DLD-1 colon) [µM]	GI50 (M14 melanoma) [µM]	GI50 (M19-MEL melanoma) [µM]	GI50 (NCI-H460 lung) [µM]	GI50 (RXF 393 renal) [µM]	GI50 (SF-539 CNS) [µM]	GI50 (SK-MEL-28 melanoma) [µM]	GI50 (UO-31 renal) [µM]
O=c1[nH]c(=O)n(C2CC(O)C(CO)O2)cc1C(OCC(F)(F)F)OCC(F)(F)F (stereo not drawn)	> 100	> 100	> 100	> 100	> 100	> 100	> 100	> 100									
CS(=O)(=O)N(CCC#N)c1ccc(/C=N/NC(=O)CC(=O)Nc2cccc(Cl)c2)cc1	> 100	> 100	> 100	> 100	> 100	> 100	> 100	> 100									
O=C(O)CNS(=O)(=O)c1ccc(NC(=O)c2ccc(F)cc2)cc1	> 100	> 100	> 100	> 100	> 100	> 100	> 100	> 100									
CCOCC(=O)N[C@H]1CCc2cc(OC)c(OC)c(OC)c2-c2ccc(SC)c(=O)cc21	> 100	> 100	> 100	0.398	2.33	< 0.01	> 100	> 100	2.31								
NC1CCCCC1N.O=C([O-])P(=O)([O-])[O-].[Na+].[Pt+4] (stereo not drawn)	> 100	> 100	> 100	> 100	> 100	> 100	> 100	> 100		> 100	> 100	85.1	55.5	> 100	> 100	> 100	> 100
CCNc1c(C(=O)N(CC)CC)c(=O)[nH]c2ncccc12	> 100	> 100	> 100	> 100	> 100	> 100	> 100	> 100									
CS(=O)(=O)OCCN1CCN(C(=O)c2cccc3c(Nc4ccc(S(N)(=O)=O)cc4)c4ccccc4nc23)CC1	> 65.3	> 100	> 100	> 100	> 100	> 100	> 100	> 100									
CCN(CC)c1ccc(N=C2C=CC(=O)c3ncccc32)c(C)c1	12	13.4	22.6	21.8	12.6	19.4	24.5	30.4									
CC(C)COC(=O)N1N=NC2C3OC(CC3=O)C21 (stereo not drawn)	> 100	> 100	> 100	> 100	> 100	> 100	> 100	> 100									
COc1ccccc1/C=C1\CCC(CNc2ccc(Cl)cc2)C1=O (stereo not drawn)	17.5	9.72	33.1	20.9	30.3	16	26.4	16.1									
CCN(CC)CC(=O)/C=C/c1ccc(C)cc1	59.6	32.2	32.7	46	44.2	37	43	39.8									
C=CCC12CCC(=O)C=C1CCC1(C2)OCCO1 (stereo not drawn)	> 100	> 100	> 100	> 100	> 100	> 100	> 100	> 100									
Cc1ccc(C(=O)O/N=C2/CCCCC2CN(C)C)cc1 (stereo not drawn)	> 100	> 100	> 100	> 100	> 100	> 100	> 100	> 100									
